The subject of data set [1] is CYP2B6. The experiment in a line: P450 induction assay in HepaRG cells (CYP2B6 activity, hydroxybupropion formation from bupropion). The class given is cell-based. The note with it: HepaRG cells cultured without matrix overlay; 10 μM RIF, 72 hours of treatment; induction is seen only when the cells are overlayed.
Procedure: Cryopreserved HepaRG™ cells (Life Technologies Corporation) are terminally differentiated prior to cryopreservation. Frozen HepaRG™ cells were thawed and plated per manufacturer's instructions and placed into 37° C., 5% CO2 cell culture incubator. 24 hours after plating, media was aspirated and cells were overlayed using 0.35 mg/mL Geltrex® matrix in 4° C. in 770 media. 72 hours after plating, media was aspirated and media was exchanged with either 740 or 750 media containing 0.1% DMSO, 50 μM omeprazole (OMP), 1 mM Phenobarbital (PB), or 10 μM Rifampicin (RIF). 740 and 750 media containing vehicle or prototypical inducers was replaced daily for a total of 72 hours of treatment. Day 6 of culture (24 hours after last dosing), P450 activity was evaluated and total RNA was isolated. P450 activity was evaluated utilizing in situ incubations of prototypical substrates (100 μM phenacetin, 500 bupropion, 10 μM midazolam, or 200 μM testosterone) in Hanks' Balanced Salts Solution (HBSS) for 1 hour at 37° C. shaking on microplate shaker @600 rpm. After in situ incubations were completed, incubation matrix (supernatant/HBSS) was removed from cell monolayer and metabolite formation was evaluated by LC/MS-MS analysis. Microphotographs were taken daily to monitor morphological changes.
For data set [2], the system named is CYP2B6. The conditions noted are these: primary human hepatocytes, via PXR activation; stated as typical behaviour; cited from earlier work.

For the molecule `CO[C@H]1/C=C/O[C@@]2(C)Oc3c(C)c(O)c4c(O)c(c(/C=N/N5CCN(C)CC5)c(O)c4c3C2=O)NC(=O)/C(C)=C\C=C\[C@H](C)[C@H](O)[C@@H](C)[C@@H](O)[C@@H](C)[C@H](OC(C)=O)[C@@H]1C` [RIF, Rifampicin], in the data set on CYP2B6 [1], the “induction of CYP2B6” value was “does not induce”. Also, the “induction of CYP2B6 enzyme activity” value with CYP2B6 [2] is “induces”.

These data come from patent US20160168537A1, “DIFFERENTIATED CELLULAR COMPOSITIONS AND METHODS FOR THEIR PREPARATION AND USE” (LIFE TECHNOLOGIES CORPORATION, priority 2013, published 2016).
